Earlier results as cited in patent US20260158012A1 (Beijing Creatron Institute Of Pharmaceutical Research Co. …, priority 2022, published 2026).
Where two headings read alike, the source gives them in different places. One block for each molecule: values may come before it.

Experiments:
[1] = for Solubility (in words): aqueous media
[2] = 7 consecutive days
[3] = tested on: advanced hepatocellular carcinoma
[4] = dosage increased from 400 mg each time to 600 mg each time
[5] = not given; remark: listed apart in the source
[6] = trough concentration <1.40 μg/mL
[7] = trough concentration ≥3.45 μg/mL

Solubility [1]: <10 µg/mL
Solubility (in words) [1]: Practically insoluble in aqueous
Structure (SMILES): [2H]C([2H])([2H])NC(=O)c1cc(Oc2ccc(NC(=O)Nc3ccc(Cl)c(C(F)(F)F)c3)cc2)ccn1 [Donafenib, 4-[4-[[4-chloro-3-(trifluoromethyl)phenyl]carbamoylamino]phenoxy]-N-(trideuteriomethyl)pyridine-2-carboxamide]

Structure (SMILES): CNC(=O)c1cc(Oc2ccc(NC(=O)Nc3ccc(Cl)c(C(F)(F)F)c3)cc2)ccn1 [Sorafenib, 4-[4-[[4-chloro-3-(trifluoromethyl)phenyl]carbamoylamino]phenoxy]-N-methylpyridine-2-carboxamide]
coefficient of variation of AUC0-12 h at steady state ([2]; 200 mg (Bid) oral): 16.9%
coefficient of variation of Cmax at steady state ([2]; 200 mg (Bid) oral): 8.6%
coefficient of variation of AUC0-12 h at steady state ([2]; 400 mg (Bid) oral): 90.5%
coefficient of variation of Cmax at steady state ([2]; 400 mg (Bid) oral): 106.7%
overall survival (OS) ([3]; 1.40 μg/mL≤Ctrough<3.45 μg/mL): 17.8 months
time to treatment failure (TTF) ([3]; 1.40 μg/mL≤Ctrough<3.45 μg/mL): 13.1 months
overall survival (OS) [3, 6]: 5.3 months
progression-free survival (PFS) [3, 6]: 4.7 months
time to treatment failure (TTF) [3, 6]: 4.7 months
incidence of serious adverse reactions above grade 3 ([3]; trough concentration below 3.45 μg/ml): 26.7%
incidence of serious adverse reactions above grade 3 ([3]; trough concentration exceeded 3.45 μg/ml): 72.7%
overall survival (OS) [3, 7]: 9.5 months
progression-free survival (PFS) [3, 7]: 8.9 months
time to treatment failure (TTF) [3, 7]: 2.4 months
Solubility [1]: <10 µg/mL
oil-water partition coefficient Log P [1]: about 5.6
Solubility (in words) [1]: Practically insoluble in aqueous
increase in drug exposure [4]: 13%
concentration of sorafenib molecules in the solution (pH 1.0): 3400 ng/mL
concentration of sorafenib molecules in the solution (pH 4.5): 130 ng/mL
steady state concentration in the blood (plasma) ([5]; after 2 weeks of treatment, renal cell carcinoma patients): 881-12,526 ng/mL
blood drug concentration of patients who experienced serious adverse reactions ([5]; human, in vivo): exceeded 10,000 ng/ml
incidence of fatigue ([5]; renal cell carcinoma patients): 55.32%
incidence of hand-foot syndrome ([5]; renal cell carcinoma patients): 68.99%
